Reference: ChEMBL document CHEMBL1201862, “PubChem BioAssay data set” (2004)
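Cultured in 96-well plates, cells were exposed to test compound for 48 hours across five concentrations. GI50 = concentration required for 50% inhibition of growth.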 Active and inactive are the calls of the source. Cut-off read from the data, not from the text of the source: active = GI50 up to about 1.1 µM and inactive = higher.

Legend:
Test in all cases: DTP human tumour cell line panel, 48 h
SR = test system: SR
OVCAR-8 = test system: OVCAR-8
HT-29 = test system: HT-29
SNB-75 = test system: SNB-75
OVCAR-5 = test system: OVCAR-5
Hs-578T = test system: Hs-578T
MCF7 = test system: MCF7
MDA-N = test system: MDA-N
RPMI-8226 = test system: RPMI-8226
K562 = test system: K562
COLO 205 = test system: COLO 205
MDA-MB-231 = test system: MDA-MB-231
NCI/ADR-RES = test system: NCI/ADR-RES
TK-10 = test system: TK-10
OVCAR-3 = test system: OVCAR-3
HCC 2998 = test system: HCC 2998
M14 = test system: M14
RXF 393 = test system: RXF 393
EKVX = test system: EKVX

Measured: GI50

CC1(C)C(C#N)=[N+]([O-])C(C)(C)N1O
inactive: SR > 100 µM | OVCAR-8 > 100 µM | HT-29 > 100 µM | SNB-75 > 100 µM | OVCAR-5 > 100 µM | Hs-578T > 100 µM | MCF7 79.4 µM | MDA-N 65.8 µM | RPMI-8226 > 100 µM | K562 > 100 µM | COLO 205 > 100 µM | MDA-MB-231 > 100 µM | NCI/ADR-RES > 100 µM | TK-10 > 100 µM | OVCAR-3 > 100 µM | HCC 2998 > 100 µM | M14 > 100 µM | RXF 393 > 100 µM | EKVX > 100 µM

O=C1OCC(CN2CCC(n3c(=O)[nH]c4ccccc43)CC2)=C1c1ccccc1
inactive: SR 30.2 µM | OVCAR-8 17.1 µM | HT-29 19.7 µM | SNB-75 28.2 µM | OVCAR-5 41 µM | Hs-578T 30 µM | MCF7 28.2 µM | MDA-N 26.2 µM | RPMI-8226 28.8 µM | K562 14.9 µM | COLO 205 14.6 µM | MDA-MB-231 26.4 µM | NCI/ADR-RES 22.5 µM | TK-10 28.1 µM | OVCAR-3 24.7 µM | HCC 2998 23.8 µM | M14 18.3 µM | RXF 393 34.8 µM | EKVX 25.9 µM

COc1cc2c(cc1O)C(c1cc(O)c(O)c(OC)c1)C(O)(C(=O)O)C(CO)C2O (stereo not given)
inactive: SR 66.4 µM | OVCAR-8 > 100 µM | HT-29 > 100 µM | SNB-75 > 100 µM | OVCAR-5 > 100 µM | Hs-578T > 100 µM | MCF7 20.9 µM | MDA-N 16.6 µM | RPMI-8226 > 100 µM | K562 47 µM | COLO 205 > 100 µM | MDA-MB-231 40.8 µM | NCI/ADR-RES > 100 µM | TK-10 > 100 µM | OVCAR-3 > 100 µM | HCC 2998 > 100 µM | M14 > 100 µM | RXF 393 > 100 µM | EKVX 20.7 µM

C=C1C(=O)OC2CC(C)C3CC(O)OC(OCC)C3(C)CC12 (stereo not given)
inactive: SR 13.6 µM | OVCAR-8 15.7 µM | HT-29 17.8 µM | SNB-75 15.5 µM | OVCAR-5 20.2 µM | Hs-578T 23.1 µM | MCF7 13.3 µM | MDA-N 17.5 µM | RPMI-8226 11.4 µM | K562 11.8 µM | COLO 205 15.8 µM | MDA-MB-231 17.5 µM | NCI/ADR-RES 16.7 µM | TK-10 22 µM | OVCAR-3 15.3 µM | HCC 2998 16.8 µM | M14 14.8 µM | RXF 393 14.8 µM | EKVX 23.7 µM

CC(=O)OCC1=C(C)C[C@H]([C@@H](COC(C)=O)C2CCC3C4C[C@H]5O[C@]56CC=CC(=O)[C@]6(C)C4CC[C@@]32C)OC1=O (stereo not given in full)
inactive: SNB-75 2.16 µM | OVCAR-5 1.23 µM
active: SR 0.005 µM | OVCAR-8 0.15 µM | HT-29 0.123 µM | Hs-578T 1 µM | MCF7 0.00955 µM | MDA-N 0.175 µM | RPMI-8226 0.0393 µM | K562 0.0106 µM | COLO 205 0.307 µM | MDA-MB-231 0.376 µM | NCI/ADR-RES 0.185 µM | TK-10 0.993 µM | OVCAR-3 0.109 µM | HCC 2998 0.573 µM | M14 0.188 µM | RXF 393 0.369 µM | EKVX 0.465 µM

COc1ccccc1NC(=S)N/N=C(/c1ccccc1)c1ccccn1
inactive: Hs-578T 7.05 µM | HCC 2998 5.97 µM
active: SR < 0.0206 µM | OVCAR-8 0.0627 µM | HT-29 0.0101 µM | SNB-75 0.998 µM | OVCAR-5 0.0635 µM | MCF7 0.0228 µM | MDA-N 0.229 µM | RPMI-8226 0.0299 µM | K562 < 0.0128 µM | COLO 205 0.0173 µM | MDA-MB-231 0.0214 µM | NCI/ADR-RES 0.0853 µM | TK-10 0.125 µM | OVCAR-3 < 0.0143 µM | M14 < 0.0249 µM | RXF 393 1.07 µM | EKVX 0.0968 µM

N/N=C(/CC(O)(C(F)(F)F)C(F)(F)F)c1ccccc1
inactive: SR > 10 µM | OVCAR-8 > 10 µM | HT-29 > 10 µM | SNB-75 > 10 µM | OVCAR-5 > 10 µM | Hs-578T > 10 µM | MCF7 > 10 µM | MDA-N > 10 µM | RPMI-8226 > 10 µM | K562 > 10 µM | COLO 205 > 10 µM | MDA-MB-231 > 10 µM | NCI/ADR-RES > 10 µM | TK-10 > 10 µM | OVCAR-3 7.4 µM | HCC 2998 > 10 µM | M14 > 10 µM | RXF 393 > 10 µM | EKVX > 10 µM

COc1ccc(C2C3=C(COC3=O)OC(C)(C)Oc3cc4c(cc32)OCO4)cc1OC (stereo not given)
inactive: SR 29.2 µM | OVCAR-8 46.1 µM | HT-29 39.4 µM | SNB-75 13.2 µM | OVCAR-5 > 77.8 µM | Hs-578T 31.6 µM | MCF7 40.1 µM | MDA-N 19.8 µM | RPMI-8226 41.6 µM | K562 30.8 µM | COLO 205 20.9 µM | MDA-MB-231 33.8 µM | NCI/ADR-RES 19.9 µM | TK-10 50.1 µM | OVCAR-3 33.2 µM | HCC 2998 78 µM | M14 28.2 µM | RXF 393 31.5 µM | EKVX 28.5 µM

Cc1cc(N(CCC#N)CCC#N)ccc1C(=N/NC(=O)c1cc(Cl)ccc1O)/N=N/c1cccc([N+](=O)[O-])c1
inactive: SR 12.6 µM | OVCAR-8 22.6 µM | HT-29 26.7 µM | SNB-75 27.5 µM | OVCAR-5 35 µM | Hs-578T 38.9 µM | MCF7 16.7 µM | MDA-N 37 µM | RPMI-8226 12.4 µM | K562 22 µM | COLO 205 16.7 µM | MDA-MB-231 14.5 µM | NCI/ADR-RES 23 µM | TK-10 27.2 µM | OVCAR-3 15.9 µM | HCC 2998 28.8 µM | M14 30.4 µM | RXF 393 22.2 µM | EKVX 25.1 µM

COC(=O)C(C)(NC(=O)C(CC(=O)OC(C)(C)C)NC(=O)OC(C)(C)C)c1ccccc1 (stereo not given)
inactive: SR 73.5 µM | OVCAR-8 > 100 µM | HT-29 > 100 µM | SNB-75 8.13 µM | OVCAR-5 > 100 µM | Hs-578T > 100 µM | MCF7 62.1 µM | MDA-N > 100 µM | RPMI-8226 72.8 µM | K562 > 100 µM | COLO 205 > 100 µM | MDA-MB-231 > 100 µM | NCI/ADR-RES 55.1 µM | TK-10 > 100 µM | OVCAR-3 49.8 µM | HCC 2998 > 100 µM | M14 > 100 µM | RXF 393 > 100 µM | EKVX > 100 µM

Nc1ncnc2c1ncn2C1CCC(COS(N)(=O)=O)C1 (stereo not given)
inactive: SR 56.4 µM | OVCAR-8 > 100 µM | HT-29 > 100 µM | SNB-75 89.5 µM | OVCAR-5 > 100 µM | Hs-578T 65.5 µM | MCF7 58.7 µM | MDA-N > 100 µM | RPMI-8226 > 100 µM | K562 > 100 µM | COLO 205 > 100 µM | MDA-MB-231 > 100 µM | NCI/ADR-RES > 100 µM | TK-10 > 100 µM | OVCAR-3 80.7 µM | HCC 2998 > 100 µM | M14 > 100 µM | RXF 393 > 100 µM | EKVX > 100 µM

Nn1c(SCC(=O)O)nc2ccccc2c1=O
inactive: SR > 100 µM | OVCAR-8 > 100 µM | HT-29 > 100 µM | SNB-75 > 100 µM | OVCAR-5 > 100 µM | Hs-578T > 100 µM | MCF7 > 100 µM | MDA-N > 100 µM | RPMI-8226 > 100 µM | K562 > 100 µM | COLO 205 > 100 µM | MDA-MB-231 > 100 µM | NCI/ADR-RES > 100 µM | TK-10 > 100 µM | OVCAR-3 > 100 µM | HCC 2998 > 100 µM | M14 > 100 µM | RXF 393 > 100 µM | EKVX > 100 µM

COC(=O)C(Cc1ccccc1)C(=O)NC(CNC(=O)OCc1ccccc1)C(=O)OCc1ccccc1 (stereo not given)
inactive: SR 24 µM | OVCAR-8 63.1 µM | HT-29 29.3 µM | SNB-75 23.3 µM | OVCAR-5 > 100 µM | Hs-578T > 63.5 µM | MCF7 > 100 µM | MDA-N 21.4 µM | RPMI-8226 21.4 µM | K562 15.6 µM | COLO 205 19.8 µM | MDA-MB-231 20.8 µM | NCI/ADR-RES 27 µM | TK-10 33.7 µM | OVCAR-3 20 µM | HCC 2998 30.8 µM | M14 15.3 µM | RXF 393 21.8 µM | EKVX 76.7 µM

C=CCOC(OCC=C)/C(Br)=C/C
inactive: SR > 100 µM | OVCAR-8 17.7 µM | HT-29 20.2 µM | SNB-75 > 100 µM | OVCAR-5 49.5 µM | Hs-578T 26.8 µM | MCF7 28.3 µM | MDA-N 37 µM | RPMI-8226 > 100 µM | K562 > 100 µM | COLO 205 19.2 µM | MDA-MB-231 > 100 µM | NCI/ADR-RES 31 µM | TK-10 > 100 µM | OVCAR-3 47.1 µM | HCC 2998 80.9 µM | M14 32.1 µM | RXF 393 29.2 µM | EKVX 35.9 µM

CCC(=O)c1cc(C(=O)C(=S)SC)cc(C(=O)C(=S)SC)c1
inactive: SR 11 µM | OVCAR-8 > 100 µM | HT-29 > 100 µM | SNB-75 > 100 µM | OVCAR-5 > 100 µM | Hs-578T > 49.7 µM | MCF7 > 72.1 µM | MDA-N > 100 µM | RPMI-8226 99.3 µM | K562 41.9 µM | COLO 205 > 100 µM | MDA-MB-231 > 100 µM | NCI/ADR-RES > 100 µM | TK-10 > 100 µM | OVCAR-3 > 54.2 µM | HCC 2998 > 100 µM | M14 > 100 µM | RXF 393 > 100 µM | EKVX > 100 µM
